Values of other authors, collected in US7998474B2, “Methods for treating an inflammatory disease of the bowel” (Rowett Research Institute, priority 2001, dated 2011).

Tested on: Clostridium perfringens serotype A
Settings: mouse, in vivo; cited from earlier work

Substance: Bacteroides thetaiotaomicron [BT]
- Resistance of ex-germ free mice to infection by Clostridium perfringens serotype A: did not however increase the resistance
